Data: patent EP0908457B1, “3-(1,2-benzisothiazol- and isoxazol-5-Y1)-2,4(1H,3H)-pyrimidinedione or thione and 3-(1,2-benzisothiazol- and isoxazol-5-y1)-4(3H)-pyrimidinone or thione herbicidal agents” (BASF AKTIENGESELLSCHAFT, priority 1997, dated 1999)

Key:
Sagittaria pygmaea, L. = assay: Preemergence weed control under flooded paddy conditions, SAGPY (Arrowhead (Pygmaea)); type: in vivo; conditions: preemergence, flooded paddy, rated three to four weeks after treatment
Cyperus iria = assay: Preemergence weed control under flooded paddy conditions, CYPIR (Rice Flatsedge); type: in vivo; conditions: preemergence, flooded paddy, rated three to four weeks after treatment
[1] = test system: Echinochloa oryzoides (Ard.) Fritsch.; assay: Preemergence weed control under flooded paddy conditions, ECHORC (Watergrass (Calif.)); type: in vivo; conditions: preemergence, flooded paddy, rated three to four weeks after treatment
[2] = test system: Oryza sativa, (L.) Tebonnet; assay: Rice tolerance to post-transplant applications under flooded paddy conditions (Example 187), ORYSAT (Rice, Tebonnet); conditions: rated three to four weeks after treatment
[3] = test system: Monochoria vaginalis, Presl.; assay: Preemergence weed control under flooded paddy conditions, MOOVA (Monochoria); type: in vivo; conditions: preemergence, flooded paddy, rated three to four weeks after treatment
[4] = test system: Cyperus serotinus, Rottb.; assay: Preemergence weed control under flooded paddy conditions, CYPSE (Flatsedge); type: in vivo; conditions: preemergence, rated three to four weeks after treatment
Note: meaning of each grade not given here.

## CC#CCOC(=O)c1nsc2ccc(-n3c(=O)cc(C(F)(F)F)n(C)c3=O)cc12 [Example 384, 1,2-Benzisothiazole-3-carboxylic acid, 5-[3,6-dihydro-3-methyl-2,6-dioxo-4-(trifluoromethyl)-1(2H)-pyrimidinyl]-, 2-butynyl ester]
Sagittaria pygmaea, L.; Rate 0.0320 kg/ha
  herbicidal effect rating, SAGPY: 5.0
Sagittaria pygmaea, L.; Rate 0.0620 kg/ha
  herbicidal effect rating, SAGPY: 6.0
Sagittaria pygmaea, L.; Rate 0.1250 kg/ha
  herbicidal effect rating, SAGPY: 6.0
Sagittaria pygmaea, L.; Rate 0.2500 kg/ha
  herbicidal effect rating, SAGPY: 6.0
Cyperus iria; Rate 0.0320 kg/ha
  herbicidal effect rating, CYPIR: 4.0
Cyperus iria; Rate 0.0620 kg/ha
  herbicidal effect rating, CYPIR: 7.0
Cyperus iria; Rate 0.1250 kg/ha
  herbicidal effect rating, CYPIR: 8.0
Cyperus iria; Rate 0.2500 kg/ha
  herbicidal effect rating, CYPIR: 8.0
[1]; Rate 0.0320 kg/ha
  herbicidal effect rating, ECHORC: 2.0
[1]; Rate 0.0620 kg/ha
  herbicidal effect rating, ECHORC: 4.0
[1]; Rate 0.1250 kg/ha
  herbicidal effect rating, ECHORC: 4.0
[1]; Rate 0.2500 kg/ha
  herbicidal effect rating, ECHORC: 6.0
[2]; Rate 0.0320 kg/ha
  herbicidal effect rating ORYSAT: 4.0
[2]; Rate 0.0620 kg/ha
  herbicidal effect rating ORYSAT: 4.0
[2]; Rate 0.1250 kg/ha
  herbicidal effect rating ORYSAT: 7.0
[2]; Rate 0.2500 kg/ha
  herbicidal effect rating ORYSAT: 6.0
[3]; Rate 0.0320 kg/ha
  herbicidal effect rating, MOOVA: 9.0
[3]; Rate 0.0620 kg/ha
  herbicidal effect rating, MOOVA: 9.0
[3]; Rate 0.1250 kg/ha
  herbicidal effect rating, MOOVA: 9.0
[3]; Rate 0.2500 kg/ha
  herbicidal effect rating, MOOVA: 9.0
[4]; Rate 0.0320 kg/ha
  herbicidal effect rating, CYPSE: 7.0
[4]; Rate 0.0620 kg/ha
  herbicidal effect rating, CYPSE: 7.0
[4]; Rate 0.1250 kg/ha
  herbicidal effect rating, CYPSE: 7.0
[4]; Rate 0.2500 kg/ha
  herbicidal effect rating, CYPSE: 7.0

## CCSCCOC(=O)c1nsc2ccc(-n3c(=O)cc(C(F)(F)F)n(C)c3=O)cc12 [Example 385, 1,2-Benzisothiazole-3-carboxylic acid, 5-[3,6-dihydro-3-methyl-2,6-dioxo-4-(trifluoromethyl)-1(2H)-pyrimidinyl]-, 2-(ethylthio)ethyl ester]
Sagittaria pygmaea, L.; Rate 0.0320 kg/ha
  herbicidal effect rating, SAGPY: 0.0
Sagittaria pygmaea, L.; Rate 0.0620 kg/ha
  herbicidal effect rating, SAGPY: 0.0
Sagittaria pygmaea, L.; Rate 0.1250 kg/ha
  herbicidal effect rating, SAGPY: 9.0
Sagittaria pygmaea, L.; Rate 0.2500 kg/ha
  herbicidal effect rating, SAGPY: 9.0
Cyperus iria; Rate 0.0320 kg/ha
  herbicidal effect rating, CYPIR: 4.0
Cyperus iria; Rate 0.0620 kg/ha
  herbicidal effect rating, CYPIR: 6.0
Cyperus iria; Rate 0.1250 kg/ha
  herbicidal effect rating, CYPIR: 6.0
Cyperus iria; Rate 0.2500 kg/ha
  herbicidal effect rating, CYPIR: 9.0
[1]; Rate 0.0320 kg/ha
  herbicidal effect rating, ECHORC: 0.0
[1]; Rate 0.0620 kg/ha
  herbicidal effect rating, ECHORC: 3.0
[1]; Rate 0.1250 kg/ha
  herbicidal effect rating, ECHORC: 3.0
[1]; Rate 0.2500 kg/ha
  herbicidal effect rating, ECHORC: 6.0
[2]; Rate 0.0320 kg/ha
  herbicidal effect rating ORYSAT: 3.0
[2]; Rate 0.0620 kg/ha
  herbicidal effect rating ORYSAT: 5.0
[2]; Rate 0.1250 kg/ha
  herbicidal effect rating ORYSAT: 7.0
[2]; Rate 0.2500 kg/ha
  herbicidal effect rating ORYSAT: 7.0
[3]; Rate 0.0320 kg/ha
  herbicidal effect rating, MOOVA: 9.0
[3]; Rate 0.0620 kg/ha
  herbicidal effect rating, MOOVA: 9.0
[3]; Rate 0.1250 kg/ha
  herbicidal effect rating, MOOVA: 9.0
[3]; Rate 0.2500 kg/ha
  herbicidal effect rating, MOOVA: 9.0
[4]; Rate 0.0320 kg/ha
  herbicidal effect rating, CYPSE: 6.0
[4]; Rate 0.0620 kg/ha
  herbicidal effect rating, CYPSE: 6.0
[4]; Rate 0.1250 kg/ha
  herbicidal effect rating, CYPSE: 7.0
[4]; Rate 0.2500 kg/ha
  herbicidal effect rating, CYPSE: 7.0

## C=C(Cl)COC(=O)c1nsc2ccc(-n3c(=O)cc(C(F)(F)F)n(C)c3=O)cc12 [Example 386, 1,2-Benzisothiazole-3-carboxylic acid, 5-[3,6-dihydro-3-methyl-2,6-dioxo-4-(trifluoromethyl)-1(2H)-pyrimidinyl]-, 2-chloroallyl ester]
Sagittaria pygmaea, L.; Rate 0.0320 kg/ha
  herbicidal effect rating, SAGPY: 4.0
Sagittaria pygmaea, L.; Rate 0.0620 kg/ha
  herbicidal effect rating, SAGPY: 7.0
Sagittaria pygmaea, L.; Rate 0.1250 kg/ha
  herbicidal effect rating, SAGPY: 9.0
Sagittaria pygmaea, L.; Rate 0.2500 kg/ha
  herbicidal effect rating, SAGPY: 9.0
Cyperus iria; Rate 0.0320 kg/ha
  herbicidal effect rating, CYPIR: 7.0
Cyperus iria; Rate 0.0620 kg/ha
  herbicidal effect rating, CYPIR: 9.0
Cyperus iria; Rate 0.1250 kg/ha
  herbicidal effect rating, CYPIR: 9.0
Cyperus iria; Rate 0.2500 kg/ha
  herbicidal effect rating, CYPIR: 9.0
[1]; Rate 0.0320 kg/ha
  herbicidal effect rating, ECHORC: 0.0
[1]; Rate 0.0620 kg/ha
  herbicidal effect rating, ECHORC: 3.0
[1]; Rate 0.1250 kg/ha
  herbicidal effect rating, ECHORC: 4.0
[1]; Rate 0.2500 kg/ha
  herbicidal effect rating, ECHORC: 5.0
[2]; Rate 0.0320 kg/ha
  herbicidal effect rating ORYSAT: 5.0
[2]; Rate 0.0620 kg/ha
  herbicidal effect rating ORYSAT: 5.0
[2]; Rate 0.1250 kg/ha
  herbicidal effect rating ORYSAT: 5.0
[2]; Rate 0.2500 kg/ha
  herbicidal effect rating ORYSAT: 5.0
[3]; Rate 0.0320 kg/ha
  herbicidal effect rating, MOOVA: 9.0
[3]; Rate 0.0620 kg/ha
  herbicidal effect rating, MOOVA: 9.0
[3]; Rate 0.1250 kg/ha
  herbicidal effect rating, MOOVA: 9.0
[3]; Rate 0.2500 kg/ha
  herbicidal effect rating, MOOVA: 9.0
[4]; Rate 0.0320 kg/ha
  herbicidal effect rating, CYPSE: 3.0
[4]; Rate 0.0620 kg/ha
  herbicidal effect rating, CYPSE: 7.0
[4]; Rate 0.1250 kg/ha
  herbicidal effect rating, CYPSE: 7.0
[4]; Rate 0.2500 kg/ha
  herbicidal effect rating, CYPSE: 7.0

## CC(=O)NCCOC(=O)c1nsc2ccc(-n3c(=O)cc(C(F)(F)F)n(C)c3=O)cc12 [Example 387, 1,2-Benzisothiazole-3-carboxylic acid, 5-[3,6-dihydro-3-methyl-2,6-dioxo-4-(trifluoromethyl)-1(2H)-pyrimidinyl]-, 2-acetamidoethyl ester]
Sagittaria pygmaea, L.; Rate 0.0320 kg/ha
  herbicidal effect rating, SAGPY: 3.0
Sagittaria pygmaea, L.; Rate 0.0620 kg/ha
  herbicidal effect rating, SAGPY: 4.0
Sagittaria pygmaea, L.; Rate 0.1250 kg/ha
  herbicidal effect rating, SAGPY: 5.0
Sagittaria pygmaea, L.; Rate 0.2500 kg/ha
  herbicidal effect rating, SAGPY: 6.0
Cyperus iria; Rate 0.0320 kg/ha
  herbicidal effect rating, CYPIR: 0.0
Cyperus iria; Rate 0.0620 kg/ha
  herbicidal effect rating, CYPIR: 5.0
Cyperus iria; Rate 0.1250 kg/ha
  herbicidal effect rating, CYPIR: 6.0
Cyperus iria; Rate 0.2500 kg/ha
  herbicidal effect rating, CYPIR: 7.0
[1]; Rate 0.0320 kg/ha
  herbicidal effect rating, ECHORC: 0.0
[1]; Rate 0.0620 kg/ha
  herbicidal effect rating, ECHORC: 0.0
[1]; Rate 0.1250 kg/ha
  herbicidal effect rating, ECHORC: 0.0
[1]; Rate 0.2500 kg/ha
  herbicidal effect rating, ECHORC: 3.0
[2]; Rate 0.0320 kg/ha
  herbicidal effect rating ORYSAT: 0.0
[2]; Rate 0.0620 kg/ha
  herbicidal effect rating ORYSAT: 0.0
[2]; Rate 0.1250 kg/ha
  herbicidal effect rating ORYSAT: 2.0
[2]; Rate 0.2500 kg/ha
  herbicidal effect rating ORYSAT: 2.0
[3]; Rate 0.0320 kg/ha
  herbicidal effect rating, MOOVA: 4.0
[3]; Rate 0.0620 kg/ha
  herbicidal effect rating, MOOVA: 9.0
[3]; Rate 0.1250 kg/ha
  herbicidal effect rating, MOOVA: 9.0
[3]; Rate 0.2500 kg/ha
  herbicidal effect rating, MOOVA: 9.0
[4]; Rate 0.0320 kg/ha
  herbicidal effect rating, CYPSE: 2.0
[4]; Rate 0.0620 kg/ha
  herbicidal effect rating, CYPSE: 5.0
[4]; Rate 0.1250 kg/ha
  herbicidal effect rating, CYPSE: 5.0
[4]; Rate 0.2500 kg/ha
  herbicidal effect rating, CYPSE: 5.0

## CCCCCCCOC(=O)c1nsc2ccc(-n3c(=O)cc(C(F)(F)F)n(C)c3=O)cc12 [Example 388, 1,2-Benzisothiazole-3-carboxylic acid, 5-[3,6-dihydro-3-methyl-2,6-dioxo-4-(trifluoromethyl)-1(2H)-pyrimidinyl]-, heptyl ester]
Sagittaria pygmaea, L.; Rate 0.0320 kg/ha
  herbicidal effect rating, SAGPY: 3.0
Sagittaria pygmaea, L.; Rate 0.0620 kg/ha
  herbicidal effect rating, SAGPY: 4.0
Sagittaria pygmaea, L.; Rate 0.1250 kg/ha
  herbicidal effect rating, SAGPY: 4.0
Sagittaria pygmaea, L.; Rate 0.2500 kg/ha
  herbicidal effect rating, SAGPY: 7.0
Cyperus iria; Rate 0.0320 kg/ha
  herbicidal effect rating, CYPIR: 4.0
Cyperus iria; Rate 0.0620 kg/ha
  herbicidal effect rating, CYPIR: 7.0
Cyperus iria; Rate 0.1250 kg/ha
  herbicidal effect rating, CYPIR: 7.0
Cyperus iria; Rate 0.2500 kg/ha
  herbicidal effect rating, CYPIR: 9.0
[1]; Rate 0.0320 kg/ha
  herbicidal effect rating, ECHORC: 0.0
[1]; Rate 0.0620 kg/ha
  herbicidal effect rating, ECHORC: 2.0
[1]; Rate 0.1250 kg/ha
  herbicidal effect rating, ECHORC: 5.0
[1]; Rate 0.2500 kg/ha
  herbicidal effect rating, ECHORC: 6.0
[2]; Rate 0.0320 kg/ha
  herbicidal effect rating ORYSAT: 3.0
[2]; Rate 0.0620 kg/ha
  herbicidal effect rating ORYSAT: 4.0
[2]; Rate 0.1250 kg/ha
  herbicidal effect rating ORYSAT: 4.0
[2]; Rate 0.2500 kg/ha
  herbicidal effect rating ORYSAT: 6.0
[3]; Rate 0.0320 kg/ha
  herbicidal effect rating, MOOVA: 9.0
[3]; Rate 0.0620 kg/ha
  herbicidal effect rating, MOOVA: 9.0
[3]; Rate 0.1250 kg/ha
  herbicidal effect rating, MOOVA: 9.0
[3]; Rate 0.2500 kg/ha
  herbicidal effect rating, MOOVA: 9.0
[4]; Rate 0.0320 kg/ha
  herbicidal effect rating, CYPSE: 6.0
[4]; Rate 0.2500 kg/ha
  herbicidal effect rating, CYPSE: 6.0

## COCCOCCOC(=O)c1nsc2ccc(-n3c(=O)cc(C(F)(F)F)n(C)c3=O)cc12 [Example 389, 1,2-Benzisothiazole-3-carboxylic acid, 5-[3,6-dihydro-3-methyl-2,6-dioxo-4-(trifluoromethyl)-1(2H)-pyrimidinyl]-, 2-(2-methoxyethoxy)ethyl ester]
Sagittaria pygmaea, L.; Rate 0.0320 kg/ha
  herbicidal effect rating, SAGPY: 3.0
Sagittaria pygmaea, L.; Rate 0.0620 kg/ha
  herbicidal effect rating, SAGPY: 4.0
Sagittaria pygmaea, L.; Rate 0.1250 kg/ha
  herbicidal effect rating, SAGPY: 7.0
Sagittaria pygmaea, L.; Rate 0.2500 kg/ha
  herbicidal effect rating, SAGPY: 9.0
Cyperus iria; Rate 0.0320 kg/ha
  herbicidal effect rating, CYPIR: 5.0
Cyperus iria; Rate 0.0620 kg/ha
  herbicidal effect rating, CYPIR: 5.0
Cyperus iria; Rate 0.1250 kg/ha
  herbicidal effect rating, CYPIR: 7.0
Cyperus iria; Rate 0.2500 kg/ha
  herbicidal effect rating, CYPIR: 9.0
[1]; Rate 0.0320 kg/ha
  herbicidal effect rating, ECHORC: 3.0
[1]; Rate 0.0620 kg/ha
  herbicidal effect rating, ECHORC: 4.0
[1]; Rate 0.1250 kg/ha
  herbicidal effect rating, ECHORC: 4.0
[1]; Rate 0.2500 kg/ha
  herbicidal effect rating, ECHORC: 7.0
[2]; Rate 0.0320 kg/ha
  herbicidal effect rating ORYSAT: 3.0
[2]; Rate 0.0620 kg/ha
  herbicidal effect rating ORYSAT: 4.0
[2]; Rate 0.1250 kg/ha
  herbicidal effect rating ORYSAT: 4.0
[2]; Rate 0.2500 kg/ha
  herbicidal effect rating ORYSAT: 5.0
[3]; Rate 0.0320 kg/ha
  herbicidal effect rating, MOOVA: 7.0
[3]; Rate 0.0620 kg/ha
  herbicidal effect rating, MOOVA: 9.0
[3]; Rate 0.1250 kg/ha
  herbicidal effect rating, MOOVA: 9.0
[3]; Rate 0.2500 kg/ha
  herbicidal effect rating, MOOVA: 9.0
[4]; Rate 0.0320 kg/ha
  herbicidal effect rating, CYPSE: 0.0
[4]; Rate 0.1250 kg/ha
  herbicidal effect rating, CYPSE: 7.0
[4]; Rate 0.2500 kg/ha
  herbicidal effect rating, CYPSE: 8.0
